Article PMC10193543 (ACS Omega, 2023)

What was measured:
mushroom TYR [1] = target: T1, mushroom TYR (Agaricus bisporus, UniProt C7FF04); test: biochemical; conditions: read-out: % inhibition at 25 μg/mL
Target sequence in this assay (C7FF04 2-392): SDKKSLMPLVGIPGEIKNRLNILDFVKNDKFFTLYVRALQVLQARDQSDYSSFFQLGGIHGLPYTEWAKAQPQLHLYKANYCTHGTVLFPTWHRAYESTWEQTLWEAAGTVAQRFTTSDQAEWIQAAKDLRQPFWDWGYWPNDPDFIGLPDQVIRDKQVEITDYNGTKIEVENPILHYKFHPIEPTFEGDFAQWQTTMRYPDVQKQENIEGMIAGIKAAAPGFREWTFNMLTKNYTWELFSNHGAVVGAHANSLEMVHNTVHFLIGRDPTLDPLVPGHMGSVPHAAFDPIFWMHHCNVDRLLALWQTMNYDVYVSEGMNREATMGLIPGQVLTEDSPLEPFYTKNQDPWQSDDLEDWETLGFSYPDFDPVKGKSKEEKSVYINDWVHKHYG

mushroom TYR [2] = target: T1, mushroom TYR; test: Kinetic study of tyrosinase inhibitory activity; type: biochemical
Target sequence in this assay (C7FF04 1-392 limits assumed): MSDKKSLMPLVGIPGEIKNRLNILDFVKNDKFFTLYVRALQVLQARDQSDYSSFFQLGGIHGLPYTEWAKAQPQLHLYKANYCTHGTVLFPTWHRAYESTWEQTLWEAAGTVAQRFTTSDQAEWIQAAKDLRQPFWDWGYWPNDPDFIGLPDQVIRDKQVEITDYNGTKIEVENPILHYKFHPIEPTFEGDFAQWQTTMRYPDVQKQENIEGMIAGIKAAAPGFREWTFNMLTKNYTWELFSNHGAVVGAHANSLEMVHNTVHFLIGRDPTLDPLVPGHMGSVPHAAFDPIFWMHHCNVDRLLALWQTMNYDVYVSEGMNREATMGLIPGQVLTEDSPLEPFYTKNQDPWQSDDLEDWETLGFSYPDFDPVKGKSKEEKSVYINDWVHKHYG

In the case of `COc1ccc(C2CC(c3ccc(C)cc3)=Nc3ccccc3S2)cc1OC` (stereo not drawn) [compound 2, 2-(3,4-dimethoxyphenyl)-4-(p-tolyl)-2,3-dihydrobenzo[b][1,4]thiazepine], the inhibition at 25 µg/mL (mushroom TYR [1]) is reported as 89 ± 3%, the Ki (mushroom TYR [2]) is reported as 1010 nM and the inhibition type (mushroom TYR [2]; diphenolase activity, L-DOPA oxidation, Lineweaver–Burk plots) is reported as “mixed-type inhibition”.
